According to US20250115597A1, “TYK2 INHIBITORS AND COMPOSITIONS AND METHODS THEREOF” (LYNK PHARMACEUTICALS CO. LTD., priority 2021, published 2025):
Like-named read-outs stand apart in the source and are kept apart here.

Tests used:
[1] = target: T1, Ba/F3-FL-TYK2-P760L cells (Homo sapiens, UniProt P29597, P760L, cells depend on it); assay: Anti-proliferative assay, Ba/F3-FL-TYK2-P760L cells (Cell-Titer Glo); assay type: cell-based; details: 72 h, read-out: BaF3-FL-T2P760L IC50
T1 construct: BaF3-FL-T2P760L (nM)
How it was run: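 Ba/F3 cells made IL-3-independent by TEL-fused or full-length mutant JAK-family kinases, seeded at 2000/well and dosed after 24 h with 9 three-fold dilutions topping at 20 μM. Viability after 72 h at 37 °C, 5% CO2 by Cell-Titer Glo ATP luminescence.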

[2] = Microsomal metabolic stability assay; assay type: in vitro ADME; details: pH 7.4, 0.5 mg/mL protein, 1 μM compound
Experimental: Microsomal Metabolic Stability Assay
Microsomes were pre-incubated with test compound or control compounds for 5 min at 37° C. in 100 mM potassium phosphate buffer, pH 7.4, 1.0 mM EDTA. The reaction was initiated by addition of 15 μL of the NADPH regenerating system to 30 μL of each incubation mixture per time point. The final incubation condition was composed of 0.5 mg/mL microsomal protein, 1 μM test article/positive control, 2 mM NADPH. The 0-minute samples were prepared by addition of a 30 μL aliquot of each incubation mixture to 135 μL quench reagent to precipitate proteins. And then a 15 μL aliquot of the NADPH regenerating system was added. At 5, 15, 30 and 45 minutes, the reaction will be stopped by the addition of cold acetonitrile solution containing internal standard. The samples taken at all time points were centrifuged at 5000×g for 15 minutes. 50 μL of supernatant are taken into 96-well assay plates pre-added with 50 μL ultrapure water, and then analyzed by LC/MS/MS.
Concentrations of test articles, control compounds in the samples were determined by using LC/MS/MS method. Plotting of the chromatograms and peak area integrations are carried out by Analyst (AB Sciex).
n the determination of the in vitro elimination constant (ke) of the control compounds, the analyte/internal standard peak area ratios will be converted to percentage remaining (% Remaining) with the following equation: […]
The slope was measured by the natural logarithm of the percentage of the residual compound and time, T1/2 was calculated according to the following formula.

[3] = dog liver microsomes, read-out: Dog LM Clint
[4] = dog liver microsomes, read-out: Dog LM T½
[5] = human liver microsomes, read-out: Human LM Clint
[6] = human liver microsomes, read-out: Human LM T½
[7] = rat liver microsomes, read-out: Rat LM Clint
[8] = rat liver microsomes, read-out: Rat LM T½

T1 sequence (P29597 whole entry P760L): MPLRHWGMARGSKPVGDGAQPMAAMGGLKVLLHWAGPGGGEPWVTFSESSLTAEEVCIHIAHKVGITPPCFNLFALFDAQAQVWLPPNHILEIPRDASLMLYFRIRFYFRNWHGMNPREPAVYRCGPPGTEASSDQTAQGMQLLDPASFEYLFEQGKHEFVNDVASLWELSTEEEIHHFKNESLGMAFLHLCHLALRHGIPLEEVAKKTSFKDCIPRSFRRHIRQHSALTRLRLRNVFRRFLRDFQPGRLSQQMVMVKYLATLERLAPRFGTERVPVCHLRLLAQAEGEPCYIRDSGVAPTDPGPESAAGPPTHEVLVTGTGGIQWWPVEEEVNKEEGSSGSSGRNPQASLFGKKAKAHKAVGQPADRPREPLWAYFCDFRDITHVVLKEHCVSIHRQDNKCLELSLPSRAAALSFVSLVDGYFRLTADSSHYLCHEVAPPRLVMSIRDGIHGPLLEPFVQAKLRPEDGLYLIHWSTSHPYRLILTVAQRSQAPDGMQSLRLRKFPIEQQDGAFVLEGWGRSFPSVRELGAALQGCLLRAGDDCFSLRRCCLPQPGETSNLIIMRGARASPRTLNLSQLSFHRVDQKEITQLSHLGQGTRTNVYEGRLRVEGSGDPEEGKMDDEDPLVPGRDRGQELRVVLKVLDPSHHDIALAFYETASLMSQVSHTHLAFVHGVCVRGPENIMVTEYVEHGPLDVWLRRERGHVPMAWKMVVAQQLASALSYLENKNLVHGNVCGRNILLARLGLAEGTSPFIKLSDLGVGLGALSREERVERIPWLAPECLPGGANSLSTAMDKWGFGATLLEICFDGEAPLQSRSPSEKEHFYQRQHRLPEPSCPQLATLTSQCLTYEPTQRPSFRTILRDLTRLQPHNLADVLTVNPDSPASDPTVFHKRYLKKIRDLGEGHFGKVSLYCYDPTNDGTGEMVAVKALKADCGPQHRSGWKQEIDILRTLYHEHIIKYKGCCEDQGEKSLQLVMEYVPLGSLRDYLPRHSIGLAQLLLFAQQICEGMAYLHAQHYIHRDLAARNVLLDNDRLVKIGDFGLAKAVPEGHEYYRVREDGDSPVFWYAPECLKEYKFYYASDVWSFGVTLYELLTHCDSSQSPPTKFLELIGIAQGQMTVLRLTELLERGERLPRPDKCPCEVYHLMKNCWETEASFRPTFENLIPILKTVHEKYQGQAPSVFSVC

SMILES	GI50 [1] [nM]	microsomal CLint at 1 μM [2, 3] [µL/min/mg]	half-life at 1 μM [2, 4] [h]	microsomal CLint at 1 μM [2, 5] [µL/min/mg]	half-life at 1 μM [2, 6] [h]	microsomal CLint at 1 μM [2, 7] [µL/min/mg]	half-life at 1 μM [2, 8] [h]
[2H]C([2H])([2H])NC(=O)c1cnc2nc1Nc1cc(cc(-c3ncn(C)n3)c1OC)COCc1cc(ccc1F)N2 [Example 76, 18-Fluoro-10-methoxy-N-(methyl-d3)-11-(1-methyl-1H-1,2,4-triazol-3-yl)-15-oxa-2,4,8,23-tetraazatetracyclo[15.3.1.1^{3,7}.1^{9,13}]tricosa-1(20),3,5,7(23),9(22),10,12,17(21),18-nonaene-6-carboxamide]	58.7	12.3	1.88	20.5	1.12	19.6	1.18
[2H]C([2H])([2H])NC(=O)c1cnc2cc1Nc1cc(cc(-c3ncn(C)n3)c1OC)COCc1cc(F)cc(n1)N2 [Example 77, 19-Fluoro-10-methoxy-N-(methyl-d3)-11-(1-methyl-1H-1,2,4-triazol-3-yl)-15-oxa-2,4,8,21-tetraazatetracyclo[15.3.1.1^{3,7}.1^{9,13}]tricosa-1(21),3,5,7(23),9(22),10,12,17,19-nonaene-6-carboxamide]	61.1	15.4	1.5	4.59	5.03	12.2	1.9
[2H]C([2H])([2H])NC(=O)c1cnc2nc1Nc1cc(cc(-c3ncn(C)n3)c1OC)COCc1cc(cc(F)c1F)N2 [Example 78, 18,19-Difluoro-10-methoxy-N-(methyl-d3)-11-(1-methyl-1H-1,2,4-triazol-3-yl)-15-oxa-2,4,8,23-tetraazatetracyclo[15.3.1.1^{3,7}.1^{9,13}]tricosa-1(20),3,5,7(23),9(22),10,12,17(21),18-nonaene-6-carboxamide]	46.5	8.5	2.72	22	1.05	21.4	1.08
[2H]C([2H])([2H])NC(=O)c1cnc2nc1Nc1cc(cc(-c3ncn(C)n3)c1OC)COCc1cc(F)cc(c1)N2 [Example 79, 19-Fluoro-10-methoxy-N-(methyl-d3)-11-(1-methyl-1H-1,2,4-triazol-3-yl)-15-oxa-2,4,8,23-tetraazatetracyclo[15.3.1.1^{3,7}.1^{9,13}]tricosa-1(21),3,5,7(23),9(22),10,12,17,19-nonaene-6-carboxamide]	40.3	8.97	2.58	27.8	0.833	26.2	0.881
[2H]C([2H])([2H])NC(=O)c1nnc2cc1Nc1cc(cc(-c3ncn(C4CC4)n3)c1OC)COCc1nc(ccc1F)N2 [Example 82, 11-(1-Cyclopropyl-1H-1,2,4-triazol-3-yl)-18-fluoro-10-methoxy-N-(methyl-d3)-15-oxa-2,4,5,8,21-pentaazatetracyclo[15.3.1.1^{3,7}.1^{9,13}]tricosa-1(20),3,5,7(23),9(22),10,12,17(21),18-nonaene-6-carboxamide]	64.3	17.8	1.3	< 11.5	> 2	20.1	1.15
[2H]C([2H])([2H])NC(=O)c1cnc2cc1Nc1cc(cc(-c3ncc(F)cn3)c1OC)COCc1nc(ccc1F)N2 [Example 86, 18-Fluoro-11-(5-fluoropyrimidin-2-yl)-10-methoxy-N-(methyl-d3)-15-oxa-2,4,8,21-tetraazatetracyclo[15.3.1.1^{3,7}.1^{9,13}]tricosa-1(20),3,5,7(23),9(22),10,12,17(21),18-nonaene-6-carboxamide]	139	20	1.16	< 11.5	> 2	< 11.5	> 2
[2H]C([2H])([2H])NC(=O)c1cnc2cc1Nc1cc(cc(-c3ncc(OC)cn3)c1OC)COCc1nc(ccc1F)N2 [Example 95, 18-Fluoro-10-methoxy-11-(5-methoxypyrimidin-2-yl)-N-(methyl-d3)-15-oxa-2,4,8,21-tetraazatetracyclo[15.3.1.1^{3,7}.1^{9,13}]tricosa-1(20),3,5,7(23),9(22),10,12,17(21),18-nonaene-6-carboxamide]	53.1	< 11.5	> 2	< 11.5	> 2	< 11.5	> 2
CCn1ccc2c(c(Nc3cc(Nc4ncc(F)cc4F)ncc3C(=O)NC)cn2C)c1=O [Example 98, 6-((3,5-Difluoropyridin-2-yl)amino)-4-((5-ethyl-1-methyl-4-oxo-4,5-dihydro-1H-pyrrolo[3,2-c]pyridin-3-yl)amino)-N-methylnicotinamide]	488	37.3	0.62	32.6	0.709	114	0.202
[2H]C([2H])([2H])NC(=O)c1cnc(Nc2ccc(F)cn2)cc1Nc1cn(C)c2ccn(CC)c(=O)c12 [Example 99, 4-[(5-Ethyl-1-methyl-4-oxo-pyrrolo[3,2-c]pyridin-3-yl)amino]-6-[(5-fluoro-2-pyridyl)amino]-N-(methyl-d3)pyridine-3-carboxamide]	56.7	33.1	1.74	89.9	0.642	181	0.319
[2H]C([2H])([2H])NC(=O)c1cnc(Nc2cc(F)c(F)cn2)cc1Nc1cn(C)c2c(F)cn(C)c(=O)c12 [Example 121, 6-((4,5-Difluoropyridin-2-yl)amino)-4-((7-fluoro-1,5-dimethyl-4-oxo-4,5-dihydro-1H-pyrrolo[3,2-c]pyridin-3-yl)amino)-N-(methyl-d3)nicotinamide]	42.2	19.9	1.16	135	0.171	115	0.201
[2H]C([2H])([2H])NC(=O)c1cnc(NC(=O)C2CC2)cc1Nc1cn(C)c2c(F)cn(CC(F)(F)F)c(=O)c12 [Example 123, 6-(Cyclopropanecarboxamido)-4-((7-fluoro-1-methyl-4-oxo-5-(2,2,2-trifluoroethyl)-4,5-dihydro-1H-pyrrolo[3,2-c]pyridin-3-yl)amino)-N-(methyl-d3)nicotinamide]	100	18.7	1.41	53	0.437	55.6	0.417
[2H]C([2H])([2H])NC(=O)c1cnc(Nc2ccc(F)cn2)cc1Nc1ccc2cnn(C([2H])([2H])[2H])c2c1OC [Example 141, 6-((5-Fluoropyridin-2-yl)amino)-4-((7-methoxy-1-(methyl-d3)-1H-indazol-6-yl)amino)-N-(methyl-d3)nicotinamide]	29.1	93.8	0.246	76	0.304	46.8	0.494
